These results are taken from patent US8778906B2, “Modulation of line-1 reverse transcriptase” (ALT Solutions, Inc., priority 2003, dated 2014).

SMILES strings stand for the structures.

One assay concerns U-2 OS cells. Nature of the assay: AZT treatment of ALT cells, flow cytometry for telomere length (PNA probe) and cell cycle (PI). The class given is cell-based, human. On the procedure: (§1) Telomere length in AZT treated and untreated cell lines was measured by flow cytometry with a telomere-specific peptide nucleic acid (PNA) probe^22,23. To determine cell cycle distribution, cells were stained with propidium iodide (PI)^22. […] AZT at the chosen concentration had no effect on telomere length or cell cycle distribution in the HeLa cells (not shown).
Rate of DNA synthesis was determined by incorporation of 5-bromodeoxyuridine (BdU)^24.
(§2) Cell lines: All cell lines used in this study were obtained from American Type Culture Collection (Rockville, Md.). The cells origins included osteosarcoma (Saos-2 and U-2 OS), liver ([…]) and uterine cervix (HeLa). Cells were cultured following ATCC recommendation. For treatment of the cells with AZT, the media was supplemented with 0.2 μM of 3′-azido-2′,3′-dideoxythymidine (Sigma)^28.
(§3) Telomere length measurement by flow cytometry: Cell were stained with telomere specific FITC conjugated (C3TA2)3 PNA (Applied Biosystems) probe and contrastained with 0.06 μg/ml PI as described^21.
On the technique in general: A flow cytometer gives signals particle by particle.

In another assay the test system is Saos-2 cells. The description is as above. The class given is cell-based, human. The note with it: Saos-2, 0.2 μM AZT, 14 days. On the procedure: as §1, §2, §3
Assay [1] has as its system WM1175 (malignant melanoma) or HUT292DM (lung cancer) cells. Kind of assay: Telomerase-positive xenograft tumors in immunodeficient mice treated with AZT. The format is in vivo. The note with it: AZT at the dose tested (total daily dose 10 mg/kg). As to the method: After induction of tumors, mice in the experimental groups may be treated with AZT. Mice may be injected i.p. twice a day with solution of AZT in PBS with a total daily dose of 10 mg/kg. Mice in control group may be injected with PBS. Alternatively, AZT at the same daily dose may be given in drinking water. […] As a separate set of controls, telomerase-positive tumors in nude mouse may be induced by injecting the immunodeficient mice with WM1175 (malignant melanoma) or HUT292DM (lung cancer) cells instead of the transformed IIICF/c fibroblast cells.

As to `Cc1cn([C@H]2C[C@H](N=[N+]=[N-])[C@@H](CO)O2)c(=O)[nH]c1=O` [AZT, 3′-azido-2′,3′-dideoxythymidine], the “DNA content (PI staining)” value in the assay with U-2 OS cells (AZT treated cells at later stages of treatment, compared to untreated cells) is recorded as “higher DNA content”. Further, the “time of AZT treatment after which changes in cell cycle distribution, DNA synthesis and telomere length could be detected” value in the assay with U-2 OS cells (U-2 OS, 0.2 μM AZT) was determined as 10 days. In addition, the apoptosis entry in the assay on U-2 OS cells (U-2 OS, 0.2 μM AZT, 14 days) is on record as “massive apoptosis”; in the assay with Saos-2 cells, “massive apoptosis”. The telomere length entry in the assay on U-2 OS cells (U-2 OS, 0.2 μM AZT, 14 days) is given as “telomere shortening”; in the assay with Saos-2 cells, “telomere shortening”. Further, the cell cycle distribution entry in the assay with U-2 OS cells (U-2 OS, 0.2 μM AZT, 14 days, PI staining) is “G2 arrest”; with Saos-2 cells (PI staining), “G2 arrest”. Moreover, in assay [1], the “inhibition of telomerase-positive tumors” value is reported as “cannot be inhibited”.
